Test results published in patent US4407803A, “Antiinflammatory 1-(quinolinyl)-2-pyrazoline derivatives” (Abbott Laboratories, priority 1981, dated 1983).

Key:
dermal Arthus reaction = experiment: reverse passive Arthus assay in rats (dermal lesion); assay type: in vivo, Male Sprague-Dawley rats; details: 100 mg/kg, oral, 30 min before anti-B.S.A.; lesion measured at four hours
Protocol: Proc. 35, 774 (1976). Each compound was administered orally to a group of four animals.
The […] passive Arthus reaction test in rats is conducted as follows: Male Sprague-Dawley rats weighing approximately 130-160 g. are used, 4 rats per group. All animals are injected intravenously with 0.5 ml. 0.075% Bovine Serum Albumin (B.S.A.)+2% Evans Blue solution. Each rat then receives an oral dose of drug; one drug is administered per group.
Thirty minutes subsequent to drug dosing, each animal is injected intradermally with 0.05 ml. 1.44% Anti-B.S.A. into the dorsal skin. Four hours later the animals are sacrificed, the dorsal skin reflexed, and the lesion excised. Two perpendicular diameters of each lesion are measured. The average diameters of the lesions from the treated groups are compared with the average diameters from the control group to determine any drug effect.

carrageenin pleurisy = experiment: modification of the carrageenin pleurisy assay (reduction in accumulation of exudate volume and leukocytes); assay type: in vivo; details: for % Inhibition Cells: leukocytes
Source text: The compounds of the present invention have anti-inflammatory activity and inhibitory effect against Type III hypersensitivity reaction. These compounds are useful for the therapy of rheumatoid arthritis, other inflammatory conditions, Type III hypersensitivity diseases and in diseases in which polymorphonuclear leukocytes accumulation contributes to the pathology. The anti-inflammatory activity of these compounds was established by using a modification of the carrageenin pleurisy assay described by Vinegar et al. Proc. Soc. Exp. Biol. Med. 143:711 (1973).

| SMILES | % Inhibition of lesion of dermal Arthus reaction (dermal Arthus reaction) [%] | % Inhibition Volume exudates (carrageenin pleurisy; Dose 60 (dose unit not given)) [%] | % Inhibition Cells (carrageenin pleurisy; Dose 60 (dose unit not given)) [%] | % Inhibition Volume exudates (carrageenin pleurisy; Dose 100 (dose unit not given)) [%] | % Inhibition Cells (carrageenin pleurisy; Dose 100 (dose unit not given)) [%] |
| --- | --- | --- | --- | --- | --- |
| N=C1CCN(c2ccc3ccccc3n2)N1 [1-(2'-quinolinyl)-3-iminopyrazolidine, 1-(2'-quinolinyl)-3-imino-pyrazolidine] | 72 |  |  |  |  |
| N=C1CCN(c2ccnc3cc(Cl)ccc23)N1 [1-(7'-chloro-4'-quinolinyl)-3-imino pyrazolidine] | 53 |  |  |  |  |
| N=C1CCN(c2cnc3ccccc3c2)N1 [1-(3'-quinolinyl)-3-iminopyrazolidine, 1-(3'-Quinolinyl)-3-iminopyrazolidine] | 37 | 86 | 71 |  |  |
| CCCCC1C(=O)N(c2ccccc2)N(c2ccccc2)C1=O [Phenylbutazone, reference compound] |  |  |  | 59 | 13 |
